Measurements published in article PMC4976367, “Dimethyl fumarate blocks pro-inflammatory cytokine production via inhibition of TLR induced M1 and K63 ubiquitin chain formation” (Scientific Reports, 2016).
Counter-ions that a name gives are not always drawn.

Columns and labels:
Assay type in all cases: biochemical
[1] = target: Ube2W (Homo sapiens, UniProt Q96B02); assay: E2 ubiquitin loading assay, panel of […] E2s at two fixed DMF concentrations
[2] = target: T1, Ube2T (Homo sapiens, UniProt Q9NPD8); assay: as above
T1 sequence (Q9NPD8 1-197): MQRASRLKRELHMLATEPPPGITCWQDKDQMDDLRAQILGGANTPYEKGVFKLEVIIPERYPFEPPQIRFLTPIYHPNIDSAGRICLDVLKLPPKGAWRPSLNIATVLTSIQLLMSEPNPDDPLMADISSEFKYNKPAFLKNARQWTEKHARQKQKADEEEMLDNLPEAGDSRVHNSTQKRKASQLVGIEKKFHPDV

[3] = target: T2, UbcH7 (Homo sapiens, UniProt P68036); assay: MALDI-TOF intact mass shift (covalent adducts, +[…] and +[…] Da); IC50 from E2 ubiquitin loading assay with purified UBE1 and E2
T2 construct: gene UBE2L3; recombinant UbcH7
T2 sequence (P68036 whole entry, one chain of several): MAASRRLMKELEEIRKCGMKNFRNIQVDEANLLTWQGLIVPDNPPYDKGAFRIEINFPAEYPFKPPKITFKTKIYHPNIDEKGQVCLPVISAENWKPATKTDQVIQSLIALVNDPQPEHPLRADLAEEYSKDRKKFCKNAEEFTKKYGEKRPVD

[4] = target: T3, Ubc13 (Homo sapiens, UniProt P61088); assay: MALDI-TOF intact mass shift (covalent adduct, +[…] Da); IC50 from E2 ubiquitin loading assay with purified UBE1 and E2
T3 construct: gene UBE2N; recombinant Ubc13
T3 sequence (P61088 1-152): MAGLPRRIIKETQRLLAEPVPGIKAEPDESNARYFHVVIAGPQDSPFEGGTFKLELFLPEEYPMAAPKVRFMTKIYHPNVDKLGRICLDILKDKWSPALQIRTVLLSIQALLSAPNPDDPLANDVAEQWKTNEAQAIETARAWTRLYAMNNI

[5] = target: T4, Ube2S (Homo sapiens, UniProt Q16763); assay: E2 ubiquitin loading assay, panel of […] E2s at two fixed DMF concentrations
T4 sequence (Q16763 1-222): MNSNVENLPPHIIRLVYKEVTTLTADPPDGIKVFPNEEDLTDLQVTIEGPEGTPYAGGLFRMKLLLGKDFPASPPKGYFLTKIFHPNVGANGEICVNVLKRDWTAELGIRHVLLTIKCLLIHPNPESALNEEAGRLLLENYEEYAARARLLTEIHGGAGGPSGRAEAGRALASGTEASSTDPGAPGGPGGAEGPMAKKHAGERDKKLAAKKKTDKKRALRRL
T4 sequence (P22314 2-1058 partner): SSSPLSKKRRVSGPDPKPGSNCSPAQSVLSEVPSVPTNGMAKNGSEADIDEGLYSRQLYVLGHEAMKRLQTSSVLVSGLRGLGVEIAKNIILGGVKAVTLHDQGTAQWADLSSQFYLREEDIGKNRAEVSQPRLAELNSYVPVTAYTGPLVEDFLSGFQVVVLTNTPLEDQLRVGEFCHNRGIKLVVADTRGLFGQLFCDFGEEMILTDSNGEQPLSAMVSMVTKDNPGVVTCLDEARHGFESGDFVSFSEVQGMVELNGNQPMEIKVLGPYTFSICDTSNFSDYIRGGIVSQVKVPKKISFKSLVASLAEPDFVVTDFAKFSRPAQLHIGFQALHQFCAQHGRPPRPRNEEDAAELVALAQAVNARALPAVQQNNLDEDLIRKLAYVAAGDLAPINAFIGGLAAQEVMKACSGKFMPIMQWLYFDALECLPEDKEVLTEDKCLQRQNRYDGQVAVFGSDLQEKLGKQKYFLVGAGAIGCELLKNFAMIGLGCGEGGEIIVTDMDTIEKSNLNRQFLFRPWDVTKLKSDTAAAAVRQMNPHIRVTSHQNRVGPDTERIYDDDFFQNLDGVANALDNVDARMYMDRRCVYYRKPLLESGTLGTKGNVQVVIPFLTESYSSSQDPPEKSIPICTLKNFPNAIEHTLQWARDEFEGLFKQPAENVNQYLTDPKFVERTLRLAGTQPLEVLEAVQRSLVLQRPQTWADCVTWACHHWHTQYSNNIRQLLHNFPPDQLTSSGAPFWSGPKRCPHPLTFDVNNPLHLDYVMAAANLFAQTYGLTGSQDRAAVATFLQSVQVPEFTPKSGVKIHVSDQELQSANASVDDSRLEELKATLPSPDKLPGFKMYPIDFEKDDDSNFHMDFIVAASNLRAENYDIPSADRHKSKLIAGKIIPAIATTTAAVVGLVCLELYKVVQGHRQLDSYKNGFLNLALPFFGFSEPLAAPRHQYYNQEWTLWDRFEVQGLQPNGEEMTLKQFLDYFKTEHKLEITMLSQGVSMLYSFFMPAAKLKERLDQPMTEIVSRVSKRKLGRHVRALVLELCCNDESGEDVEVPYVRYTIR

[6] = target: T5, Ube2R1 (Homo sapiens, UniProt P49427); assay: as above
T5 construct: gene CDC34
T5 sequence (P49427 1-236): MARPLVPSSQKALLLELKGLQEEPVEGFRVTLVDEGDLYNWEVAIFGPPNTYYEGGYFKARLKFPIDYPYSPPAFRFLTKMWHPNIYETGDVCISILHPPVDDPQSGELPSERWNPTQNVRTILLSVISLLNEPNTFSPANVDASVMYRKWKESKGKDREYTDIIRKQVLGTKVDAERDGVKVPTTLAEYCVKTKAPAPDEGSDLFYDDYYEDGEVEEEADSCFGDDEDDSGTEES

Ube2W, sequence (Q96B02 whole entry, one chain of several): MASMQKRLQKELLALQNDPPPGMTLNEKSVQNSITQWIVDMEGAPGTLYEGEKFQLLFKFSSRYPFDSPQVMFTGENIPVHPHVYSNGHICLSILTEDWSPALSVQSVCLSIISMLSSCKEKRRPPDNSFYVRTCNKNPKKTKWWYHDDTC

SMILES: COC(=O)/C=C/C(=O)OC [Dimethyl fumarate]
- E2 ubiquitin loading assay, panel of 24 E2s at two fixed DMF concentrations [1]: UbcH7, Ube2W, Ube2T, Ube2S and Ube2R1 being most strongly inhibited
- E2 ubiquitin loading assay, panel of 24 E2s at two fixed DMF concentrations [2]: UbcH7, Ube2W, Ube2T, Ube2S and Ube2R1 being most strongly inhibited
- IC50 [3]: < 10 µM
- IC50 [4]: 10 to 20 µM
- E2 ubiquitin loading assay, panel of 24 E2s at two fixed DMF concentrations [5]: UbcH7, Ube2W, Ube2T, Ube2S and Ube2R1 being most strongly inhibited
- E2 ubiquitin loading assay, panel of 24 E2s at two fixed DMF concentrations [6]: UbcH7, Ube2W, Ube2T, Ube2S and Ube2R1 being most strongly inhibited
